One block for each compound: values may come before it. The source made the active and inactive calls. No cut-off for these calls is given here.
Assays:
MOLM-13 [1] = assay: cells; conditions: Homo sapiens, MOLM-13, 72 h
MV4-11 [2] = assay: cells; conditions: Homo sapiens, MV4-11, 72 h
MOLM-13 [3] = assay: Induction of SMARCA4 degradation in human MOLM-13 cells at 10 uM measured after 72 hrs by Western blotting analysis; assay type: cell-based
MOLM-13 [4] = assay: Induction of SMARCA2 degradation in human MOLM-13 cells at 10 uM measured after 72 hrs by Western blotting analysis; assay type: cell-based
MOLM-13 [5] = assay: Induction of apoptosis in human MOLM-13 cells assessed as viable cells at 1000 nM measured after 72 hrs by Annexin-V-FITC/propidium iodide staining based flow cytometry (reference value: 90.28%); assay type: functional; conditions: read-out: Activity
MV4-11 [6] = assay: Induction of apoptosis in human MV4-11 cells assessed as viable cells at 100 nM measured after 72 hrs by Annexin-V-FITC/propidium iodide staining based flow cytometry (reference value: 89.49%); assay type: functional; conditions: read-out: Activity
MV4-11 [7] = assay: Induction of apoptosis in human MV4-11 cells assessed as early apoptotic cells at 100 nM measured after 72 hrs by Annexin-V-FITC/propidium iodide staining based flow cytometry (reference value: 9.32%); assay type: functional
MV4-11 [8] = assay: Induction of apoptosis in human MV4-11 cells assessed as necrotic cells at 100 nM measured after 72 hrs by Annexin-V-FITC/propidium iodide staining based flow cytometry (reference value: 0.1%); assay type: functional
MOLM-13 [9] = assay: Induction of apoptosis in human MOLM-13 cells assessed as necrotic cells at 100 nM measured after 72 hrs by Annexin-V-FITC/propidium iodide staining based flow cytometry (reference value: 0.28%); assay type: functional
MOLM-13 [10] = assay: Induction of apoptosis in human MOLM-13 cells assessed as late apoptotic cells at 1000 nM measured after 72 hrs by Annexin-V-FITC/propidium iodide staining based flow cytometry (reference value: 3.87%); assay type: functional
MOLM-13 [11] = assay: Induction of apoptosis in human MOLM-13 cells assessed as early apoptotic cells at 1000 nM measured after 72 hrs by Annexin-V-FITC/propidium iodide staining based flow cytometry (reference value: 5.57%); assay type: functional
MOLM-13 [12] = assay: Induction of apoptosis in human MOLM-13 cells assessed as early apoptotic cells at 300 nM measured after 72 hrs by Annexin-V-FITC/propidium iodide staining based flow cytometry (reference value: 5.57%); assay type: functional
MV4-11 [13] = assay: Induction of apoptosis in human MV4-11 cells assessed as early apoptotic cells at 1000 nM measured after 72 hrs by Annexin-V-FITC/propidium iodide staining based flow cytometry (reference value: 9.32%); assay type: functional
MV4-11 [14] = assay: Induction of apoptosis in human MV4-11 cells assessed as late apoptotic cells at 300 nM measured after 72 hrs by Annexin-V-FITC/propidium iodide staining based flow cytometry (reference value: 1.09%); assay type: functional
MOLM-13 [15] = assay: Induction of apoptosis in human MOLM-13 cells assessed as viable cells at 100 nM measured after 72 hrs by Annexin-V-FITC/propidium iodide staining based flow cytometry (reference value: 90.28%); assay type: functional; conditions: read-out: Activity
MV4-11 [16] = assay: Induction of apoptosis in human MV4-11 cells assessed as early apoptotic cells at 300 nM measured after 72 hrs by Annexin-V-FITC/propidium iodide staining based flow cytometry (reference value: 9.32%); assay type: functional
MV4-11 [17] = assay: Induction of apoptosis in human MV4-11 cells assessed as late apoptotic cells at 100 nM measured after 72 hrs by Annexin-V-FITC/propidium iodide staining based flow cytometry (reference value: 1.09%); assay type: functional
MV4-11 [18] = assay: Induction of apoptosis in human MV4-11 cells assessed as necrotic cells at 1000 nM measured after 72 hrs by Annexin-V-FITC/propidium iodide staining based flow cytometry (reference value: 0.1%); assay type: functional
MV4-11 [19] = assay: Induction of apoptosis in human MV4-11 cells assessed as viable cells at 1000 nM measured after 72 hrs by Annexin-V-FITC/propidium iodide staining based flow cytometry (reference value: 89.49%); assay type: functional; conditions: read-out: Activity
MOLM-13 [20] = assay: Induction of apoptosis in human MOLM-13 cells assessed as viable cells at 300 nM measured after 72 hrs by Annexin-V-FITC/propidium iodide staining based flow cytometry (reference value: 90.28%); assay type: functional; conditions: read-out: Activity
MOLM-13 [21] = assay: Induction of apoptosis in human MOLM-13 cells assessed as late apoptotic cells at 300 nM measured after 72 hrs by Annexin-V-FITC/propidium iodide staining based flow cytometry (reference value: 3.87%); assay type: functional
MOLM-13 [22] = assay: Induction of apoptosis in human MOLM-13 cells assessed as late apoptotic cells at 100 nM measured after 72 hrs by Annexin-V-FITC/propidium iodide staining based flow cytometry (reference value: 3.87%); assay type: functional
MOLM-13 [23] = assay: Induction of apoptosis in human MOLM-13 cells assessed as necrotic cells at 300 nM measured after 72 hrs by Annexin-V-FITC/propidium iodide staining based flow cytometry (reference value: 0.28%); assay type: functional
MV4-11 [24] = assay: Induction of apoptosis in human MV4-11 cells assessed as necrotic cells at 300 nM measured after 72 hrs by Annexin-V-FITC/propidium iodide staining based flow cytometry (reference value: 0.1%); assay type: functional
MOLM-13 [25] = assay: Induction of apoptosis in human MOLM-13 cells assessed as necrotic cells at 1000 nM measured after 72 hrs by Annexin-V-FITC/propidium iodide staining based flow cytometry (reference value: 0.28%); assay type: functional
MV4-11 [26] = assay: Induction of apoptosis in human MV4-11 cells assessed as late apoptotic cells at 1000 nM measured after 72 hrs by Annexin-V-FITC/propidium iodide staining based flow cytometry (reference value: 1.09%); assay type: functional
MV4-11 [27] = assay: Induction of apoptosis in human MV4-11 cells assessed as viable cells at 300 nM measured after 72 hrs by Annexin-V-FITC/propidium iodide staining based flow cytometry (reference value: 89.49%); assay type: functional; conditions: read-out: Activity
MOLM-13 [28] = assay: Induction of apoptosis in human MOLM-13 cells assessed as early apoptotic cells at 100 nM measured after 72 hrs by Annexin-V-FITC/propidium iodide staining based flow cytometry (reference value: 5.57%); assay type: functional

Structure (SMILES): Cc1ncsc1-c1ccc(CNC(=O)[C@@H]2C[C@@H](O)CN2C(=O)[C@@H](NC(=O)c2ccc(-c3cc(-c4ccccc4O)nnc3N)cc2)C(C)(C)C)cc1
IC50 (MOLM-13 [1]): 9.61 µM
IC50 (MV4-11 [2]): 5.07 µM

Structure (SMILES): CC(C)C[C@H](NC(=O)[C@H](Cc1ccccc1)NC(=O)c1cnccn1)B(O)O
Activity (MOLM-13 [3]): Active
Activity (MOLM-13 [4]): Active

Structure (SMILES): Cc1ncsc1-c1ccc([C@H](C)NC(=O)[C@@H]2C[C@@H](O)CN2C(=O)[C@@H](NC(=O)CCc2ccc(-c3cc(-c4ccccc4O)nnc3N)cc2)C(C)(C)C)cc1
IC50 (MOLM-13 [1]): 8.73 µM
IC50 (MV4-11 [2]): 3.11 µM

Structure (SMILES): Cc1ncsc1-c1ccc([C@H](C)NC(=O)[C@@H]2C[C@@H](O)CN2C(=O)[C@@H](NC(=O)CN2CCN(c3cc(-c4ccccc4O)nnc3N)CC2)C(C)(C)C)cc1
viability at 1 µM (MOLM-13 [5]): 13.9%
viability at 0.1 µM (MV4-11 [6]): 24%
Activity (MV4-11 [7]): 52.03%
Activity (MV4-11 [8]): 1.43%
Activity (MOLM-13 [9]): 0.25%
Activity (MOLM-13 [10]): 27.77%
Activity (MOLM-13 [11]): 58.07%
Activity (MOLM-13 [12]): 62.09%
Activity (MV4-11 [13]): 56.45%
Activity (MV4-11 [14]): 26.43%
viability at 0.1 µM (MOLM-13 [15]): 53.7%
Activity (MV4-11 [16]): 52.83%
Activity (MV4-11 [17]): 22.53%
Activity (MV4-11 [18]): 1.01%
viability at 1 µM (MV4-11 [19]): 18.5%
viability at 0.3 µM (MOLM-13 [20]): 21.8%
Activity (MOLM-13 [21]): 15.85%
Activity (MOLM-13 [22]): 6.71%
Activity (MOLM-13 [23]): 0.31%
Activity (MV4-11 [24]): 1.63%
Activity (MOLM-13 [25]): 0.28%
Activity (MV4-11 [26]): 24.02%
viability at 0.3 µM (MV4-11 [27]): 19.1%
Activity (MOLM-13 [28]): 39.38%

Structure (SMILES): Cc1ncsc1-c1ccc([C@H](C)NC(=O)[C@@H]2C[C@@H](O)CN2C(=O)[C@@H](NCc2ccc(-c3cc(-c4ccccc4O)nnc3N)cc2)C(C)(C)C)cc1
IC50 (MOLM-13 [1]): 6.85 µM
IC50 (MV4-11 [2]): 3.88 µM

Structure (SMILES): Cc1ncsc1-c1ccc(CNC(=O)[C@@H]2C[C@@H](O)CN2C(=O)[C@@H](NC(=O)CSc2ccc(-c3cc(-c4ccccc4O)nnc3N)cc2)C(C)(C)C)cc1
IC50 (MOLM-13 [1]): 7.78 µM
IC50 (MV4-11 [2]): 5.77 µM

Structure (SMILES): Cc1ncsc1-c1ccc([C@H](C)NC(=O)[C@@H]2C[C@@H](O)CN2C(=O)[C@@H](NC(=O)c2ccc(-c3cc(-c4ccccc4O)nnc3N)cc2)C(C)(C)C)cc1
IC50 (MOLM-13 [1]): > 10 µM
IC50 (MV4-11 [2]): > 10 µM

Structure (SMILES): Cc1ncsc1-c1ccc([C@H](C)NC(=O)[C@@H]2C[C@@H](O)CN2C(=O)[C@@H](NC(=O)CSc2ccc(-c3cc(-c4ccccc4O)nnc3N)cc2)C(C)(C)C)cc1
IC50 (MOLM-13 [1]): 5.1 µM
IC50 (MV4-11 [2]): 5.75 µM

Structure (SMILES): NS(=O)(=O)OC[C@@H]1C[C@@H](n2ccc3c(N[C@H]4CCc5ccccc54)ncnc32)C[C@@H]1O
Activity (MOLM-13 [3]): Active
Activity (MOLM-13 [4]): Active

More lines, in order of falling IC50 (MOLM-13 [1]), values ahead:

IC50 (MOLM-13 [1]): 4.67 µM
IC50 (MV4-11 [2]): 4.78 µM
Structure (SMILES): Cc1ncsc1-c1ccc(CNC(=O)[C@@H]2C[C@@H](O)CN2C(=O)[C@@H](NCc2ccc(-c3cc(-c4ccccc4O)nnc3N)cc2)C(C)(C)C)cc1

IC50 (MOLM-13 [1]): 3.87 µM
IC50 (MV4-11 [2]): 2.14 µM
Structure (SMILES): Cc1ncsc1-c1ccc(CNC(=O)[C@@H]2C[C@@H](O)CN2C(=O)[C@@H](NC(=O)CCc2ccc(-c3cc(-c4ccccc4O)nnc3N)cc2)C(C)(C)C)cc1

IC50 (MOLM-13 [1]): 3.82 µM
IC50 (MV4-11 [2]): 0.24 µM
Structure (SMILES): Cc1ncsc1-c1ccc([C@H](C)NC(=O)[C@@H]2C[C@@H](O)CN2C(=O)[C@@H](NC(=O)Cc2ccc(-c3cc(-c4ccccc4O)nnc3N)cc2)C(C)(C)C)cc1

IC50 (MOLM-13 [1]): 2.73 µM
IC50 (MV4-11 [2]): 0.71 µM
Structure (SMILES): Cc1ncsc1-c1ccc(CNC(=O)[C@@H]2C[C@@H](O)CN2C(=O)[C@@H](NC(=O)Cc2ccc(-c3cc(-c4ccccc4O)nnc3N)cc2)C(C)(C)C)cc1

IC50 (MOLM-13 [1]): 1.45 µM
IC50 (MV4-11 [2]): 0.02 µM
Structure (SMILES): Cc1ncsc1-c1ccc(CNC(=O)[C@@H]2C[C@@H](O)CN2C(=O)[C@@H](NC(=O)CCCc2ccc(-c3cc(-c4ccccc4O)nnc3N)cc2)C(C)(C)C)cc1

IC50 (MOLM-13 [1]): 0.85 µM
IC50 (MV4-11 [2]): 0.3 µM
Structure (SMILES): Cc1ncsc1-c1ccc(CNC(=O)[C@@H]2C[C@@H](O)CN2C(=O)[C@@H](NC(=O)COc2ccc(-c3cc(-c4ccccc4O)nnc3N)cc2)C(C)(C)C)cc1

IC50 (MOLM-13 [1]): 0.46 µM
IC50 (MV4-11 [2]): 0.12 µM
Structure (SMILES): Cc1ncsc1-c1ccc([C@H](C)NC(=O)[C@@H]2C[C@@H](O)CN2C(=O)[C@@H](NC(=O)COc2ccc(-c3cc(-c4ccccc4O)nnc3N)cc2)C(C)(C)C)cc1

IC50 (MOLM-13 [1]): 0.26 µM
IC50 (MV4-11 [2]): 0.03 µM
Structure (SMILES): Cc1ncsc1-c1ccc(CNC(=O)[C@@H]2C[C@@H](O)CN2C(=O)[C@@H](NC(=O)C2(c3ccc(-c4cc(-c5ccccc5O)nnc4N)cc3)CC2)C(C)(C)C)cc1

IC50 (MOLM-13 [1]): 0.12 µM
IC50 (MV4-11 [2]): 0.34 µM
Structure (SMILES): Cc1ncsc1-c1ccc([C@H](C)NC(=O)[C@@H]2C[C@@H](O)CN2C(=O)[C@@H](NC(=O)CCCc2ccc(-c3cc(-c4ccccc4O)nnc3N)cc2)C(C)(C)C)cc1
